Measurements reported in ChEMBL document CHEMBL4800722, “Data for DCP probe BI 605906” (2021).
Active and inactive are the calls of the source.

Assays:
[1] = target: Phosphatidylinositol 4-kinase beta (Homo sapiens) (UniProt Q9UBF8); conditions: Compound concentration 1.0 uM
[2] = target: D(2) dopamine receptor (Homo sapiens) (UniProt P14416); conditions: Compound concentration 10.0 uM
[3] = target: Inhibitor of nuclear factor kappa-B kinase subunit beta (Homo sapiens) (UniProt O14920)
[4] = target: AMPK alpha2/beta2/gamma3 (Homo sapiens) (UniProt P54646+O43741+Q9UGI9); conditions: Compound concentration 1.0 uM
[5] = target: Ephrin type-A receptor 5 (Homo sapiens) (UniProt P54756); conditions: Compound concentration 1.0 uM
[6] = target: Cathepsin G (Homo sapiens) (UniProt P08311); assay: PEPCATHEPSG Eurofins SafetyScreen44 (BI); conditions: Compound concentration 10.0 uM
[7] = target: Mitogen-activated protein kinase 14 (Homo sapiens) (UniProt Q16539); assay: SAPK2AP38 DUNDEE kinase screen (BI); conditions: Compound concentration 10.0 uM
[8] = target: Leukotriene A-4 hydrolase (Cavia porcellus) (UniProt P19602); conditions: Compound concentration 10.0 uM
[9] = target: PI3K p110 beta/p85 alpha (Homo sapiens) (UniProt P27986+P42338); assay: PIK3CBPIK3RI Invitrogen Lab (UK) kinase screen (BI); assay type: protein-complex assay; conditions: Compound concentration 1.0 uM
[10] = target: Tyrosine-protein kinase Tec (Homo sapiens) (UniProt P42680); conditions: Compound concentration 1.0 uM
[11] = target: Serine/threonine-protein kinase 26 (Homo sapiens) (UniProt Q9P289); conditions: Compound concentration 1.0 uM
[12] = target: Aurora kinase B (Homo sapiens) (UniProt Q96GD4); conditions: Compound concentration 1.0 uM
[13] = target: Voltage-dependent L-type calcium channel subunit alpha-1C (CA+/DILSI/RA) (Rattus norvegicus, UniProt P22002); assay: CA+/DILSI/RA Eurofins SafetyScreen44 (BI); conditions: read-out: % Ctrl
Sequence of Voltage-dependent L-type calcium channel subunit alpha-1C (CA+/DILSI/RA) (P22002 whole entry): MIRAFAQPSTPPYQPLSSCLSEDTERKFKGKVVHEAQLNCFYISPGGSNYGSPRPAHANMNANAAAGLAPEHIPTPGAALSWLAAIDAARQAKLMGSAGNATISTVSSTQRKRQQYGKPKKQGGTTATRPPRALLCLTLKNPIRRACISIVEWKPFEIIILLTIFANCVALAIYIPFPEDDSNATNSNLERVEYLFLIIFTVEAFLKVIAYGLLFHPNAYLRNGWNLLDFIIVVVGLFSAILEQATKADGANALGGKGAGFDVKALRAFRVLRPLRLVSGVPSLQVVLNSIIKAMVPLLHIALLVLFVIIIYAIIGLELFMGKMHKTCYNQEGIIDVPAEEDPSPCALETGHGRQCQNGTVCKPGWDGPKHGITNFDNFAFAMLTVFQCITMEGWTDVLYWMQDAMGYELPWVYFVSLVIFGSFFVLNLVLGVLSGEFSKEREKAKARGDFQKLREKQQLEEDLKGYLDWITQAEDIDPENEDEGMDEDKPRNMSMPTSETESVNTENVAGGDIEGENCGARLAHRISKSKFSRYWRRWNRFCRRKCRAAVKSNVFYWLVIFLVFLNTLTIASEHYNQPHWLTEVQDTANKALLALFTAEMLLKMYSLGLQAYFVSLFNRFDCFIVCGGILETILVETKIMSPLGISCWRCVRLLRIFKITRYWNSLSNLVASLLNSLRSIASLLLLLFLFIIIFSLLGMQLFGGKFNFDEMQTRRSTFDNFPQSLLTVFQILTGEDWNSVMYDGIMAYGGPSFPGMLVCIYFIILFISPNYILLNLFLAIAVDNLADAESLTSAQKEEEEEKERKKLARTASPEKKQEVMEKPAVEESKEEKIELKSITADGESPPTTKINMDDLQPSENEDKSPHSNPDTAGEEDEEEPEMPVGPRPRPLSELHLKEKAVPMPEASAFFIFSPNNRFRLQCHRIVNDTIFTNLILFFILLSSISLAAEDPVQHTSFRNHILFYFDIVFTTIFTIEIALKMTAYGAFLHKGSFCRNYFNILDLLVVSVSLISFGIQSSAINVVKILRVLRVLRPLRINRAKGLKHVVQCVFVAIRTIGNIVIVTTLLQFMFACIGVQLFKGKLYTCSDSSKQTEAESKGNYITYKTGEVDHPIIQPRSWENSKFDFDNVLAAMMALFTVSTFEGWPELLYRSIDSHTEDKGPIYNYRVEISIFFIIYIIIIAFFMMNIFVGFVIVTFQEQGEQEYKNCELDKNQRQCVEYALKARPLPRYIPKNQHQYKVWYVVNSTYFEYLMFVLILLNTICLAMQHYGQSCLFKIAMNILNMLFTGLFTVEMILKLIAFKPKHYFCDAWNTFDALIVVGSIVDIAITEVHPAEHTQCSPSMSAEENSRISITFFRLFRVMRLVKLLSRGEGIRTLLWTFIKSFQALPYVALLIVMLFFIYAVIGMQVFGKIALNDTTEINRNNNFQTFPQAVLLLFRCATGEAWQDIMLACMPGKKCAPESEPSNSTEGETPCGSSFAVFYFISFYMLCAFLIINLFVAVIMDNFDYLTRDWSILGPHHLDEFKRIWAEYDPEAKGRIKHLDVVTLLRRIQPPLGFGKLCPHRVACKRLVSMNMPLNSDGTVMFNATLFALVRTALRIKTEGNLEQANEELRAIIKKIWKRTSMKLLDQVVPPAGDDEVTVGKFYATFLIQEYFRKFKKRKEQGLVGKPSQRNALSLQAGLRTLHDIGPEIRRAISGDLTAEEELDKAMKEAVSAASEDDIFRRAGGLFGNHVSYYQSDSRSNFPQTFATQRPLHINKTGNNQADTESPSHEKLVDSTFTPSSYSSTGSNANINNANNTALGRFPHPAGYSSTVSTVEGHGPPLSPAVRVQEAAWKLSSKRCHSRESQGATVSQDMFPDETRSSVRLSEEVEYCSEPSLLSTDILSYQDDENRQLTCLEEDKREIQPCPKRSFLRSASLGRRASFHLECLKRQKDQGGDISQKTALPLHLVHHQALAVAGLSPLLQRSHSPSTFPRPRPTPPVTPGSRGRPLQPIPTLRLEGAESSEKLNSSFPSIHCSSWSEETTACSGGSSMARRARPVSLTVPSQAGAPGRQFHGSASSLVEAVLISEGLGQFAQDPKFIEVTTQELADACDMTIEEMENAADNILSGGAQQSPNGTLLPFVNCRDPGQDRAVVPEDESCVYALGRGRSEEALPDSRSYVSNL

[14] = target: Alpha-1A adrenergic receptor (Homo sapiens) (UniProt P35348); conditions: Compound concentration 10.0 uM
[15] = target: Ribosomal protein S6 kinase alpha-5 (Homo sapiens) (UniProt O75582); assay: MSK1 DUNDEE kinase screen (BI); conditions: Compound concentration 10.0 uM
[16] = target: Ribosomal protein S6 kinase beta-2 (Homo sapiens) (UniProt Q9UBS0); assay: RPS6KB2 (P70S6KB) Invitrogen Lab (UK) kinase screen (BI); conditions: Compound concentration 1.0 uM
[17] = test system: Serine/threonine-protein kinase B-raf (Homo sapiens), P15056 [V600E]; assay: BRAF V599E Invitrogen Lab (UK) kinase screen (BI); conditions: Compound concentration 10.0 uM
[18] = target: Inhibitor of nuclear factor kappa-B kinase subunit beta (Homo sapiens, UniProt O14920); assay: Biochemical assay
Sequence of Inhibitor of nuclear factor kappa-B kinase subunit beta (O14920 whole entry): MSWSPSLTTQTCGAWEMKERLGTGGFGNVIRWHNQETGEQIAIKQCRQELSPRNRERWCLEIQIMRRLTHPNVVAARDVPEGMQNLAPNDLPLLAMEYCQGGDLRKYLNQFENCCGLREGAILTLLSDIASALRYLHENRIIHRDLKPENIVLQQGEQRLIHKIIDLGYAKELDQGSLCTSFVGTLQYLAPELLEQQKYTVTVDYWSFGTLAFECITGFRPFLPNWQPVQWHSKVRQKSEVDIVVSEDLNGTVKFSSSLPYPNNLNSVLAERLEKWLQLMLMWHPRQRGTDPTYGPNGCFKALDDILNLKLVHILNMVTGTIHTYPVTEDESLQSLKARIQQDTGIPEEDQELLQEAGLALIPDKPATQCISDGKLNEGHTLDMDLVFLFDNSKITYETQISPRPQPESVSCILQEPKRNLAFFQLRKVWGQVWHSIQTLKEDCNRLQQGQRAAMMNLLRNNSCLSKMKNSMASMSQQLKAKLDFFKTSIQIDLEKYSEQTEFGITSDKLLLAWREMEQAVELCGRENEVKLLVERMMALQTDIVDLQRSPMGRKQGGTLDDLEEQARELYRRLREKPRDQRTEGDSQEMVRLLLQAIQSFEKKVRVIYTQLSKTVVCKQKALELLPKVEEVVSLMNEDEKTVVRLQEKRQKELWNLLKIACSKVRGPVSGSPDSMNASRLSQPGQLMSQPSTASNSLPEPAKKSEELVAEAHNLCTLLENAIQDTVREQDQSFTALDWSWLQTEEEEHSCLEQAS

[19] = target: Casein kinase 2 (Homo sapiens) (UniProt P67870+P68400+P19784+Q8NEV1); assay: CK2 DUNDEE kinase screen (BI); assay type: protein assay; conditions: Compound concentration 10.0 uM
[20] = target: Calcium/calmodulin-dependent protein kinase type 1 (Homo sapiens) (UniProt Q14012); conditions: Compound concentration 1.0 uM
[21] = target: Calcium/calmodulin-dependent protein kinase kinase 2 (Homo sapiens) (UniProt Q96RR4); conditions: Compound concentration 1.0 uM
[22] = target: Rhodopsin kinase GRK7 (Homo sapiens) (UniProt Q8WTQ7); conditions: Compound concentration 1.0 uM
Renin (Homo sapiens) = Renin (Homo sapiens) (UniProt P00797); conditions: Compound concentration 10.0 uM
[23] = target: Mitogen-activated protein kinase 8 (Homo sapiens) (UniProt P45983)
Sequence of Mitogen-activated protein kinase 8 (Homo sapiens) (P45983 whole entry, the tested form may be a part): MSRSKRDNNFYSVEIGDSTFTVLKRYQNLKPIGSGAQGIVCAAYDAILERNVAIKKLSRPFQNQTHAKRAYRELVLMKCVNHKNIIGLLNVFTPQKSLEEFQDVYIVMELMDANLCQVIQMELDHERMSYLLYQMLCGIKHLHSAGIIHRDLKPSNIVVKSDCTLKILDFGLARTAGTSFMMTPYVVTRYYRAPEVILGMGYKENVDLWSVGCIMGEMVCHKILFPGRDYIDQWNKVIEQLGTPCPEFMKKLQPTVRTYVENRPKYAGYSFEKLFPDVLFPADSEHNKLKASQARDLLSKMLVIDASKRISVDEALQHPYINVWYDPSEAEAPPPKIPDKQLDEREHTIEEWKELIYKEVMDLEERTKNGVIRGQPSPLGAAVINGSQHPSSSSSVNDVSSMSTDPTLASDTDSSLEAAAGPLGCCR

[24] = target: Epithelial discoidin domain-containing receptor 1 (Homo sapiens) (UniProt Q08345); assay: DDR1 Invitrogen Lab (UK) kinase screen (BI); conditions: Compound concentration 1.0 uM
[25] = target: 3-phosphoinositide-dependent protein kinase 1 (Homo sapiens) (UniProt O15530)
Sequence of 3-phosphoinositide-dependent protein kinase 1 (Homo sapiens) (O15530 whole entry, looked up, canonical isoform): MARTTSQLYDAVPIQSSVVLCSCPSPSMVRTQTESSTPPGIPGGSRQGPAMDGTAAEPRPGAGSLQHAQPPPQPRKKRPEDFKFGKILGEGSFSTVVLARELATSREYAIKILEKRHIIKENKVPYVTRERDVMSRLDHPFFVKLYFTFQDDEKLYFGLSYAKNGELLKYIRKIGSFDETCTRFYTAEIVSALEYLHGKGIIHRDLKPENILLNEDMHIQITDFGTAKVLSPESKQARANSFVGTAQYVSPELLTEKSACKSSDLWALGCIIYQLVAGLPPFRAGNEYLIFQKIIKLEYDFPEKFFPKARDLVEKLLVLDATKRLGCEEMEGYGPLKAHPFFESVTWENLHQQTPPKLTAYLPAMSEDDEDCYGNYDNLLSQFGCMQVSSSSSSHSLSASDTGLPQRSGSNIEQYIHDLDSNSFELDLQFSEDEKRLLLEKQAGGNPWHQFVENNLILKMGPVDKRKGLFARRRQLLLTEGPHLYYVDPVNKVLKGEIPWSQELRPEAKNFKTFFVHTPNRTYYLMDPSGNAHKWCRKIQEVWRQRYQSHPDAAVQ

[26] = target: Phosphatidylinositol 4,5-bisphosphate 3-kinase catalytic subunit gamma isoform (Homo sapiens) (UniProt P48736); assay: PIK3CG Invitrogen Lab (UK) kinase screen (BI); conditions: Compound concentration 1.0 uM
[27] = target: Voltage-dependent N-type calcium channel subunit alpha-1B (Rattus norvegicus) (UniProt Q02294); assay: CA+/N/RA Eurofins SafetyScreen44 (BI); conditions: Compound concentration 10.0 uM
[28] = target: Serine/threonine-protein kinase 17A (Homo sapiens) (UniProt Q9UEE5); assay: STK17A Invitrogen Lab (UK) kinase screen (BI); conditions: Compound concentration 1.0 uM
[29] = target: Ribosomal protein S6 kinase beta-1 (Homo sapiens) (UniProt P23443)
[30] = target: 3-phosphoinositide-dependent protein kinase 1 (Homo sapiens) (UniProt O15530); conditions: Compound concentration 10.0 uM
Chymase (Homo sapiens) = Chymase (Homo sapiens) (UniProt P23946); conditions: Compound concentration 10.0 uM
[31] = target: Mitogen-activated protein kinase kinase kinase kinase 2 (Homo sapiens) (UniProt Q12851); conditions: Compound concentration 1.0 uM
[32] = target: Serine/threonine-protein kinase 32C (Homo sapiens) (UniProt Q86UX6); conditions: Compound concentration 1.0 uM
[33] = target: Mast/stem cell growth factor receptor Kit (Homo sapiens) (UniProt P10721)
Sequence of Mast/stem cell growth factor receptor Kit (Homo sapiens) (P10721 whole entry): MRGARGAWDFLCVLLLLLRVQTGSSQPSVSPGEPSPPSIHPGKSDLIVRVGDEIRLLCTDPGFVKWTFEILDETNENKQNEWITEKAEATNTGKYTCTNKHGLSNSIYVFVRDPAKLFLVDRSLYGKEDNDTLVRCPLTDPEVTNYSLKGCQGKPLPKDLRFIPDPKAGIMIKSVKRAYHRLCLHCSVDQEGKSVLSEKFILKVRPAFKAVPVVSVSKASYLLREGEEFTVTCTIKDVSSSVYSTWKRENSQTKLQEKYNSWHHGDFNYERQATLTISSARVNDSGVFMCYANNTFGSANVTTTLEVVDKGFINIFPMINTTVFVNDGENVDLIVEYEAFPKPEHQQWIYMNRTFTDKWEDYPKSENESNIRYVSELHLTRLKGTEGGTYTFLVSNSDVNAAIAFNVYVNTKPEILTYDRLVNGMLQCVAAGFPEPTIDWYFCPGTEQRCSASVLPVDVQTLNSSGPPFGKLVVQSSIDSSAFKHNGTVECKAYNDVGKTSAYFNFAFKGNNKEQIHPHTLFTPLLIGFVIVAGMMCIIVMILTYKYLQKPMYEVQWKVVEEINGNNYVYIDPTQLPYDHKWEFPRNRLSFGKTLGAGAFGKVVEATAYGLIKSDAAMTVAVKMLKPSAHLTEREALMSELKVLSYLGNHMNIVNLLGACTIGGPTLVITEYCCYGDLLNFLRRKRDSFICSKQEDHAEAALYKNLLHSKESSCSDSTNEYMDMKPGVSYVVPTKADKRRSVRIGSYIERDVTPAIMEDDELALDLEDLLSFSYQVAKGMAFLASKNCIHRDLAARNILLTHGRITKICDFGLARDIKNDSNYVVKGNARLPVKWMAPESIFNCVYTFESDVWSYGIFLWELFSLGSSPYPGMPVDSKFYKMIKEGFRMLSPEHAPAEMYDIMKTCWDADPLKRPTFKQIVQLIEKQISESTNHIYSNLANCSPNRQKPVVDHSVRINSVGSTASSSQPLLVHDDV

[34] = target: Proto-oncogene tyrosine-protein kinase ROS (Homo sapiens) (UniProt P08922); conditions: Compound concentration 1.0 uM
[35] = target: Serine/threonine-protein kinase 38 (Homo sapiens) (UniProt Q15208); assay: STK38 (NDR) Invitrogen Lab (UK) kinase screen (BI); conditions: Compound concentration 1.0 uM
[36] = target: Phosphatidylinositol 4-kinase type 2-beta (Homo sapiens) (UniProt Q8TCG2); assay: PI4K2B Invitrogen Lab (UK) kinase screen (BI); conditions: Compound concentration 1.0 uM
[37] = target: CDK2/Cyclin A1 (Homo sapiens) (UniProt P24941+P78396); assay: CDK2/CYCLIN A1 Invitrogen Lab (UK) kinase screen (BI); assay type: protein-complex assay; conditions: Compound concentration 1.0 uM
[38] = target: Tyrosine-protein kinase Lck (Homo sapiens) (UniProt P06239); assay: LCK Invitrogen Lab (UK) kinase screen (BI)
[39] = target: Dual specificity testis-specific protein kinase 1 (Homo sapiens) (UniProt Q15569); conditions: Compound concentration 1.0 uM

Sequence of Inhibitor of nuclear factor kappa-B kinase subunit beta (Homo sapiens) (O14920 whole entry): as the sequence (O14920 whole entry) above

CCC(F)(F)c1cc(N2CCC(S(C)(=O)=O)CC2)nc2sc(C(N)=O)c(N)c12 [BI-605906]
101% (not active): activity at 10 µM ([13]; compound concentration 10 uM)
111% (not active): activity at 3 µM ([13]; compound concentration 3 uM)
inactive: residual activity [1] 92% | residual activity [4] 99% | residual activity [5] 94% | residual activity [6] 106% | residual activity [7] 85.3% | residual activity [8] 93% | residual activity [9] 124% | residual activity [10] 96% | residual activity [11] 109% | residual activity [12] 98% | inhibition [14] 18.9% | residual activity [15] 86.6% | residual activity [16] 86% | residual activity [19] 89.4% | residual activity [20] 109% | residual activity [21] 93% | residual activity [22] 101% | residual activity (Renin (Homo sapiens)) 100% | residual activity ([23]; Compound concentration 1.0 uM) 91% | residual activity ([23]; Compound concentration 10.0 uM) 100% | residual activity [24] 84% | residual activity ([25]; Compound concentration 1.0 uM) 89% | residual activity ([25]; Compound concentration 10.0 uM) 101% | residual activity [26] 102% | residual activity [27] 86% | residual activity [28] 80% | residual activity ([29]; Compound concentration 1.0 uM) 94% | residual activity ([29]; Compound concentration 10.0 uM) 66% | residual activity [30] 89.1% | residual activity (Chymase (Homo sapiens)) 93% | residual activity [31] 99% | residual activity [32] 99% | residual activity ([33]; Compound concentration 1.0 uM) 89% | residual activity ([33]; Compound concentration 10.0 uM) 83% | residual activity [34] 94% | residual activity [35] 83% | residual activity [36] 102% | residual activity [37] 80% | residual activity ([38]; Compound concentration 1.0 uM) 68% | residual activity ([38]; Compound concentration 10.0 uM) 67% | residual activity [39] 92%
99% (not active): activity at 1 µM ([13]; compound concentration 1 uM)
45%: activity at 100 µM ([13]; compound concentration 100 uM)
87% (not active): activity at 30 µM ([13]; compound concentration 30 uM)
active: inhibition [2] 69.8% | residual activity ([3]; Compound concentration 1.0 uM) 13.5% | residual activity ([3]; Compound concentration 10.0 uM) -1.5% | residual activity [17] 34% | IC50 [18] 0.049 µM
